{"source": "patent US20110009628A1", "about": "“Compounds and Compositions for Modulating Lipid Levels and Methods of Preparing Same” (priority 2009, published 2011)", "key": {"[1]": {"tested_on": "PCSK9 protein expression in HepG2 cells", "assay": "Western blot of PCSK9 protein in HepG2 cells, Compounds 162 and 163", "type": "cell-based, human", "conditions": "20 μM, time-dependent, FIG. 7", "experimental": "FIG. 7 is a Western blot analysis of LDLR and PCSK9 expression in HepG2 cells. HepG2 cells seeded in 12-well culture plates were cultured in 0.5% FBS MEM overnight. Compounds 162 and 163 at 20 μM were added to cells for the indicated times. Untreated and treated cells were harvested at the same indicated time points. Total cell lysates were isolated and 50 μg per sample was analyzed for LDLR and PCSK9 protein abundance by western blotting. The membrane was reprobed with anti-actin antibody to examine the equal loading of cell lysates.\nRecent studies have identified the liver secreted serine protease PCSK9 (proprotein convertase subtilisin type 9) as a natural inhibitor of LDLR protein expression that degrades hepatic LDLR protein, thus increasing circulating LDL-C levels."}, "in vivo": {"assay": "in vivo", "set-up": "species or system Golden Syrian hamsters", "conditions": "male, Golden Syrian, hamster, po", "experimental": "For testing the efficacy of Compound 141 (phosphate salt of Compound 127) or its enantiomers (Compound 162/Compound 163) the following suspension formulation procedure was developed to make 100 ml of Compound 141 in suspension at 10 mg/ml concentration in 0.1 M tartaric buffer pH. 3 containing 0.5% hydroxypropylcellulose H-type (HPC-H):\nStep 1: 1.50 g L-(+)-tartaric acid was dissolved in 100 mL water to prepare a tartaric acid solution. The solution was adjusted to pH 3 with 1.2 mL 5N NaOH solution to provide the tartaric acid buffer (100 mM). Step 2: 0.5 g HPC-H powder was added to 10 mL tartaric acid buffer (100 mM) at 50° C. The slurry was stirred for 30 minutes, and then diluted with 90 mL tartaric acid buffer (100 mM) at room temperature to provide 0.5% HPC-H. Agitation was continued until all particles were dissolved and the solution was completely free of gels. Step 3: 1.20 g Compound 141 (or Compound 162 or Compound 163) and 1.20 g mannitol were mixed and ground through a 120 mesh sieve, then the mixture was ground slightly again. The mixture was dispersed in 100 mL 0.5% HPC-H-L-(+)-Tartaric acid buffer (pH=3), then stirred until the drug dispersed evenly. The final pH was 2.6. All the above procedures were completed at room temperature (˜25° C.). The final concentration of Compound 141 was 10 mg/ml after correction of the salt weight.\nThe pharmacokinetic profile and bioavailability of Compound 141 (phosphate salt of Compound 127) in male Wistar rats following single intravenous (iv) and oral administration (p.o.) were measured according to the procedures of Example 4 and are summarized in Table 11. The pharmacokinetic profile of Compound 162 in male Golden Syrian masters following oral administration (pox) is summarized in Table 12."}, "Hyperlipidemic Hamsters": {"tested_on": "Hyperlipidemic Hamsters", "assay": "Serum lipids and biochemistry in hyperlipidemic hamsters on high fat high cholesterol diet, 2 weeks oral Compound 162", "type": "in vivo, Golden Syrian Hamsters", "conditions": "for ALT / AST / BUN / Bil-T / Creatinine / Glucose / HDL-C / TC / TG: serum, HFHC feeding, n = 10", "experimental": "Male hamsters were fed a cholesterol-enriched diet for 14 days before the daily oral feeding of Compound 162 at 30, 60, and 100 mg/kg, or an equal volume of vehicle for 2-weeks. Serum samples were collected after 2 weeks of treatment and analyzed for TC, TG, and HDL-C. The data shown are mean±SEM of 10 hamsters per group (* p<0.05, ** p<0.01 compared to untreated control group).\nMale Golden Syrian Hamsters were used as an animal model to examine the in vivo effects of Compound 162 in plasma lipid levels. In one experiment, 40 male hamsters under a high fat and high cholesterol diet were divided into 4 groups of 10 hamsters per group. Group 1 was given vehicle only and groups 2-4 were given Compound 162 at 30, 60, and 100 mg/kg/day by an orogastric tube for 2 weeks. At the end of treatment, hamsters were sacrificed and blood and sera were collected to measure lipid levels and several critical parameters of liver function and kidney function."}, "[2]": {"tested_on": "cholesterol 7α-hydroxylase (CYP7A) mRNA", "assay": "Liver cholesterol 7α-hydroxylase (CYP7A) mRNA in treated hamsters, real-time PCR", "type": "in vivo, hamster", "conditions": "100 mg/kg, 2 weeks, p<0.01", "source_text": "The conversion of cholesterol to bile acids by the liver and their subsequent excretion in the feces represent a major route for the elimination of sterol from the body. The cholesterol 7α-hydroxylase is the first and rate-limiting enzyme in the bile acid biosynthetic pathway. The measurement of the mRNA expression level of cholesterol 7α-hydroxylase (CYP7A) is widely used as a means to monitor bile acid synthesis in liver. To assess the effect of Compound 162 on liver bile acid synthesis, the mRNA levels of CYP7A were measured in vehicle and liver samples from hamsters treated with 100 mg/kg Compound 162 by real-time PCR as described above."}, "[3]": {"conditions": "100 mg/kg, 2 weeks, hamsters, FIG. 8"}}, "note": "Structures can show the parent of a compound that is named as a salt. Marks after values point to notes of the source that are not given here.", "data": [{"smiles": "COc1cc2c(cc1OC)C1Cc3ccc(OC)c(OS(=O)(=O)c4cccc(F)c4)c3CN1CC2", "note": "(single isomer, unassigned) [Compound 162, 2,3,10-Trimethoxy-5,6,7,8,13,13a-hexahydroisoquinolino[2,1-b]isoquinolin-9-yl 3-fluorobenzenesulfonate phosphate Salt (Enantiomer having positive optical rotation)]", "values": [{"measurement": "PCSK9 cellular levels", "setting": "[1]", "result": "greatly decreased"}, {"measurement": "AUC(0-inf)", "setting": "in vivo; 15 mg/kg", "result": 914, "unit": "ng·h/mL"}, {"measurement": "AUC(0-t)", "setting": "in vivo; 15 mg/kg", "result": 889, "unit": "ng·h/mL"}, {"measurement": "Cmax", "setting": "in vivo; 15 mg/kg", "result": 195, "unit": "ng/mL"}, {"measurement": "MRT inf", "setting": "in vivo; 15 mg/kg", "result": 6.95, "unit": "h"}, {"measurement": "MRT last", "setting": "in vivo; 15 mg/kg", "result": 6.06, "unit": "h"}, {"measurement": "Tmax", "setting": "in vivo; 15 mg/kg", "result": 0.5, "unit": "h"}, {"measurement": "t1/2z", "setting": "in vivo; 15 mg/kg", "result": 5.21, "unit": "h"}, {"measurement": "AUC(0-inf)", "setting": "in vivo; 30 mg/kg", "result": 2110, "unit": "ng·h/mL"}, {"measurement": "AUC(0-t)", "setting": "in vivo; 30 mg/kg", "result": 2020, "unit": "ng·h/mL"}, {"measurement": "Cmax", "setting": "in vivo; 30 mg/kg", "result": 848, "unit": "ng/mL"}, {"measurement": "MRT inf", "setting": "in vivo; 30 mg/kg", "result": 5.17, "unit": "h"}, {"measurement": "MRT last", "setting": "in vivo; 30 mg/kg", "result": 3.81, "unit": "h"}, {"measurement": "Tmax", "setting": "in vivo; 30 mg/kg", "result": 0.5, "unit": "h"}, {"measurement": "t1/2z", "setting": "in vivo; 30 mg/kg", "result": 6.85, "unit": "h"}, {"measurement": "increase of HDL-C", "setting": "Hyperlipidemic Hamsters; [3]", "result": 21, "unit": "%"}, {"measurement": "reduction of serum TC", "setting": "Hyperlipidemic Hamsters; [3]", "result": 46, "unit": "%"}, {"measurement": "reduction of serum TG", "setting": "Hyperlipidemic Hamsters; [3]", "result": 63.7, "unit": "%"}, {"measurement": "VLDL-C, LDL-C in pooled serum (HPLC lipoprotein profile)", "setting": "Hyperlipidemic Hamsters; 30, 60, 100 mg/kg/day, hamsters fed the HFHC diet, FIGS. 9A and 9B", "result": "dose-dependently lowered"}, {"measurement": "Blood glucose level", "setting": "Hyperlipidemic Hamsters; hamsters, 2 weeks", "result": "not changed"}, {"measurement": "kidney function", "setting": "Hyperlipidemic Hamsters; hamsters, 2 weeks", "result": "improved"}, {"measurement": "serum levels of AST and ALT versus control group", "setting": "Hyperlipidemic Hamsters; hamsters, 2 weeks", "result": "statistically lower"}, {"measurement": "ALT", "setting": "Hyperlipidemic Hamsters; 30 mkg, 2 weeks", "result": "441 ± 401", "unit": "IU/L"}, {"measurement": "AST", "setting": "Hyperlipidemic Hamsters; 30 mkg, 2 weeks", "result": "202.0 ± 135", "unit": "IU/L"}, {"measurement": "BUN", "setting": "Hyperlipidemic Hamsters; 30 mkg, 2 weeks", "result": "4.5 ± 0.9", "unit": "mmol/L"}, {"measurement": "Bil-T", "setting": "Hyperlipidemic Hamsters; 30 mkg, 2 weeks", "result": "0.6 ± 1.0", "unit": "µmol/L"}, {"measurement": "Creatinine", "setting": "Hyperlipidemic Hamsters; 30 mkg, 2 weeks", "result": "17.8 ± 6.1* umol/L"}, {"measurement": "Glucose", "setting": "Hyperlipidemic Hamsters; 30 mkg, 2 weeks", "result": "3.8 ± 0.8", "unit": "mmol/L"}, {"measurement": "HDL-C", "setting": "Hyperlipidemic Hamsters; 30 mkg, 2 weeks", "result": "3.9 ± 0.5", "unit": "mmol/L"}, {"measurement": "TC", "setting": "Hyperlipidemic Hamsters; 30 mkg, 2 weeks", "result": "19.0 ± 10.1", "unit": "mmol/L"}, {"measurement": "TG", "setting": "Hyperlipidemic Hamsters; 30 mkg, 2 weeks", "result": "9.4 ± 9.2", "unit": "mmol/L"}, {"measurement": "ALT", "setting": "Hyperlipidemic Hamsters; 60 mkg, 2 weeks", "result": "353 ± 250", "unit": "IU/L"}, {"measurement": "AST", "setting": "Hyperlipidemic Hamsters; 60 mkg, 2 weeks", "result": "151.5 ± 61", "unit": "IU/L"}, {"measurement": "BUN", "setting": "Hyperlipidemic Hamsters; 60 mkg, 2 weeks", "result": "5.0 ± 0.7", "unit": "mmol/L"}, {"measurement": "Bil-T", "setting": "Hyperlipidemic Hamsters; 60 mkg, 2 weeks", "result": "0.3 ± 0.3* umol/L"}, {"measurement": "Creatinine", "setting": "Hyperlipidemic Hamsters; 60 mkg, 2 weeks", "result": "15.7 ± 4.2** umol/L"}, {"measurement": "Glucose", "setting": "Hyperlipidemic Hamsters; 60 mkg, 2 weeks", "result": "5.0 ± 1.0", "unit": "mmol/L"}, {"measurement": "HDL-C", "setting": "Hyperlipidemic Hamsters; 60 mkg, 2 weeks", "result": "3.9 ± 0.5", "unit": "mmol/L"}, {"measurement": "TC", "setting": "Hyperlipidemic Hamsters; 60 mkg, 2 weeks", "result": "16.9 ± 8.7* mmol/L"}, {"measurement": "TG", "setting": "Hyperlipidemic Hamsters; 60 mkg, 2 weeks", "result": "7.6 ± 8.1* mmol/L"}, {"measurement": "ALT", "setting": "Hyperlipidemic Hamsters; 100 mkg, 2 weeks", "result": "376 ± 262", "unit": "IU/L"}, {"measurement": "AST", "setting": "Hyperlipidemic Hamsters; 100 mkg, 2 weeks", "result": "150.4 ± 42", "unit": "IU/L"}, {"measurement": "BUN", "setting": "Hyperlipidemic Hamsters; 100 mkg, 2 weeks", "result": "4.8 ± 0.7", "unit": "mmol/L"}, {"measurement": "Bil-T", "setting": "Hyperlipidemic Hamsters; 100 mkg, 2 weeks", "result": "0.2 ± 0.2* umol/L"}, {"measurement": "Creatinine", "setting": "Hyperlipidemic Hamsters; 100 mkg, 2 weeks", "result": "15.3 ± 3.2** umol/L"}, {"measurement": "Glucose", "setting": "Hyperlipidemic Hamsters; 100 mkg, 2 weeks", "result": "5.0 ± 1.3", "unit": "mmol/L"}, {"measurement": "HDL-C", "setting": "Hyperlipidemic Hamsters; 100 mkg, 2 weeks", "result": "4.2 ± 0.5** mmol/L"}, {"measurement": "TC", "setting": "Hyperlipidemic Hamsters; 100 mkg, 2 weeks", "result": "16.4 ± 5.8*** mmol/L"}, {"measurement": "TG", "setting": "Hyperlipidemic Hamsters; 100 mkg, 2 weeks", "result": "6.7 ± 5.2* mmol/L"}, {"measurement": "CPY7A mRNA expression in liver versus vehicle control", "setting": "[2]", "result": 2.7, "unit": "fold"}]}]}
